According to ChEMBL document CHEMBL1201862, “PubChem BioAssay data set” (2004):
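Test compounds were applied to cells in 96-well plates for 48 hours at 5 doses. Here, GI50 denotes the concentration required for 50% inhibition of growth.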 Calls of active or inactive are those of the source. No stated cut-off is given here; in the data, active = GI50 up to about 1.1 µM and inactive = higher.

Assays:
Assay in all cases: DTP human tumour cell line panel, 48 h
A498 = test system: A498
HOP-92 = test system: HOP-92
CCRF-CEM = test system: CCRF-CEM
SF-539 = test system: SF-539
SN12C = test system: SN12C
Malme-3M = test system: Malme-3M
HL-60 = test system: HL-60
U-251 = test system: U-251
T47D = test system: T47D
UACC-257 = test system: UACC-257
KM12 = test system: KM12
COLO 205 = test system: COLO 205
SK-OV-3 = test system: SK-OV-3
TK-10 = test system: TK-10
PC-3 = test system: PC-3
M14 = test system: M14
SF-268 = test system: SF-268
SK-MEL-28 = test system: SK-MEL-28
SK-MEL-5 = test system: SK-MEL-5
HCT-15 = test system: HCT-15

Question: Which results are given for Oc1ccccc1/C=N/c1nc2cc3sc(/N=C/c4ccccc4O)nc3cc2s1?
Answer: GI50 (A498): 26.3 µM (inactive); GI50 (HOP-92): > 100 µM (inactive); GI50 (CCRF-CEM): 4.74 µM (inactive); GI50 (SF-539): > 85.5 µM (inactive); GI50 (SN12C): > 60.5 µM (inactive); GI50 (Malme-3M): > 100 µM (inactive); GI50 (HL-60): 4.44 µM (inactive); GI50 (U-251): > 70.5 µM (inactive); GI50 (T47D): > 61.1 µM (inactive); GI50 (UACC-257): > 100 µM (inactive); GI50 (KM12): > 66.8 µM (inactive); GI50 (COLO 205): 3.3 µM (inactive); GI50 (SK-OV-3): > 89.3 µM (inactive); GI50 (TK-10): > 86.9 µM (inactive); GI50 (PC-3): > 89.3 µM (inactive); GI50 (M14): 97.1 µM (inactive); GI50 (SF-268): 50.9 µM (inactive); GI50 (SK-MEL-28): > 100 µM (inactive); GI50 (SK-MEL-5): > 47.9 µM (inactive); GI50 (HCT-15): 19.2 µM

Question: With CC1(CNCc2ccccc2)CC(CCc2ccccc2)N(C(=O)c2ccc([N+](=O)[O-])cc2)C1Cc1ccc(O)cc1 (stereo not given) as the molecule, how does the GI50 (A498) read?
Answer: Its GI50 is 12.9 µM (inactive).

Question: And the GI50 (HOP-92)?
Answer: The GI50 was 2.04 µM (inactive).

Question: And the GI50 (CCRF-CEM)?
Answer: The GI50 was 23.2 µM (inactive).

Question: What about the GI50 (SF-539) of the same molecule?
Answer: Its GI50 is 17.1 µM (inactive).

Question: And the GI50 (SN12C)?
Answer: Its GI50 is 6.76 µM (inactive).

Question: What about the GI50 (Malme-3M) of the same molecule?
Answer: The GI50 was 19.2 µM (inactive).

Question: What about the GI50 (HL-60) of the same molecule?
Answer: The GI50 was 11.3 µM (inactive).

Question: What about the GI50 (U-251) of the same molecule?
Answer: Its GI50 is 12.3 µM (inactive).

Question: And the GI50 (T47D)?
Answer: Its GI50 is 5.32 µM (inactive).

Question: What about the GI50 (UACC-257) of the same molecule?
Answer: Its GI50 is 12.4 µM (inactive).

Question: What about the GI50 (KM12) of the same molecule?
Answer: The GI50 was 15.6 µM (inactive).

Question: And the GI50 (COLO 205)?
Answer: The GI50 was 6.5 µM (inactive).

Question: And the GI50 (SK-OV-3)?
Answer: The GI50 was 17.1 µM (inactive).

Question: What about the GI50 (TK-10) of the same molecule?
Answer: The GI50 was 16.4 µM (inactive).

Question: And the GI50 (PC-3)?
Answer: The GI50 was 10.7 µM (inactive).

Question: What about the GI50 (M14) of the same molecule?
Answer: Its GI50 is 13.7 µM (inactive).

Question: What about the GI50 (SF-268) of the same molecule?
Answer: The GI50 was 13.4 µM (inactive).

Question: And the GI50 (SK-MEL-28)?
Answer: The GI50 was 31 µM (inactive).

Question: What about the GI50 (SK-MEL-5) of the same molecule?
Answer: Its GI50 is 5.35 µM (inactive).

Question: And the GI50 (HCT-15)?
Answer: The GI50 was 12.6 µM.

Question: What does the source list for CCCNCC(O)CNc1ccc(NCC(O)CNCCC)c2c1C(=O)c1ccccc1C2=O (stereo not given)?
Answer: GI50 (A498): 11.7 µM (inactive); GI50 (HOP-92): 2.07 µM (inactive); GI50 (CCRF-CEM): 0.998 µM (active); GI50 (SF-539): 1.71 µM (inactive); GI50 (SN12C): 1.78 µM (inactive); GI50 (Malme-3M): 2.7 µM (inactive); GI50 (HL-60): 2.52 µM (inactive); GI50 (U-251): 2.57 µM (inactive); GI50 (T47D): 4.02 µM (inactive); GI50 (UACC-257): 7.85 µM (inactive); GI50 (KM12): 3.41 µM (inactive); GI50 (COLO 205): 2.31 µM (inactive); GI50 (SK-OV-3): 2.04 µM (inactive); GI50 (TK-10): 10.6 µM (inactive); GI50 (PC-3): 1.95 µM (inactive); GI50 (M14): 3.33 µM (inactive); GI50 (SF-268): 2.03 µM (inactive); GI50 (SK-MEL-28): 2.96 µM (inactive); GI50 (SK-MEL-5): 2.69 µM (inactive); GI50 (HCT-15): 43.9 µM

Question: How did the GI50 (A498) turn out when COP(=O)(OC)[C@@](O)(c1ccccc1)[C@@H](O)[C@H](O)c1ccccc1 was run?
Answer: The GI50 was > 100 µM (inactive).

Question: What about the GI50 (HOP-92) of the same molecule?
Answer: Its GI50 is > 100 µM (inactive).

Question: What about the GI50 (CCRF-CEM) of the same molecule?
Answer: The GI50 was 18.3 µM (inactive).

Question: And the GI50 (SF-539)?
Answer: The GI50 was 38.4 µM (inactive).

Question: And the GI50 (SN12C)?
Answer: The GI50 was > 100 µM (inactive).

Question: And the GI50 (Malme-3M)?
Answer: Its GI50 is > 100 µM (inactive).

Question: And the GI50 (HL-60)?
Answer: The GI50 was > 100 µM (inactive).

Question: And the GI50 (U-251)?
Answer: The GI50 was > 100 µM (inactive).

Question: What about the GI50 (T47D) of the same molecule?
Answer: Its GI50 is > 100 µM (inactive).

Question: And the GI50 (UACC-257)?
Answer: Its GI50 is > 100 µM (inactive).

Question: What about the GI50 (KM12) of the same molecule?
Answer: Its GI50 is > 100 µM (inactive).

Question: And the GI50 (COLO 205)?
Answer: The GI50 was > 100 µM (inactive).

Question: What about the GI50 (SK-OV-3) of the same molecule?
Answer: The GI50 was > 100 µM (inactive).

Question: And the GI50 (TK-10)?
Answer: Its GI50 is > 100 µM (inactive).

Question: And the GI50 (PC-3)?
Answer: The GI50 was > 100 µM (inactive).

Question: What about the GI50 (M14) of the same molecule?
Answer: The GI50 was > 100 µM (inactive).

Question: And the GI50 (SF-268)?
Answer: The GI50 was > 100 µM (inactive).

Question: What about the GI50 (SK-MEL-28) of the same molecule?
Answer: The GI50 was > 100 µM (inactive).

Question: What about the GI50 (SK-MEL-5) of the same molecule?
Answer: Its GI50 is > 100 µM (inactive).

Question: What about the GI50 (HCT-15) of the same molecule?
Answer: The GI50 was over 100 µM.

Question: Which GI50 (A498) does the source give for CC(=O)OC(C)C1C2=C(C(=O)CC1(C)O)C(=O)c1c(ccc(-c3ccc4c(c3O)C(=O)C3=C(C4=O)C(C(C)OC(C)=O)C(C)(O)CC3=O)c1O)C2=O (stereo not given) here?
Answer: Its GI50 is 2.86 µM (inactive).

Question: And the GI50 (HOP-92)?
Answer: The GI50 was 1.57 µM (inactive).

Question: And the GI50 (CCRF-CEM)?
Answer: The GI50 was 0.308 µM (active).

Question: What about the GI50 (SF-539) of the same molecule?
Answer: Its GI50 is 1.92 µM (inactive).

Question: What about the GI50 (SN12C) of the same molecule?
Answer: Its GI50 is 2.82 µM (inactive).

Question: What about the GI50 (Malme-3M) of the same molecule?
Answer: The GI50 was 0.724 µM (active).

Question: And the GI50 (HL-60)?
Answer: Its GI50 is 0.398 µM (active).

Question: And the GI50 (U-251)?
Answer: The GI50 was 1.72 µM (inactive).

Question: And the GI50 (T47D)?
Answer: Its GI50 is 0.78 µM (active).

Question: What about the GI50 (UACC-257) of the same molecule?
Answer: The GI50 was 1.75 µM (inactive).

Question: What about the GI50 (KM12) of the same molecule?
Answer: Its GI50 is 3.19 µM (inactive).

Question: What about the GI50 (COLO 205) of the same molecule?
Answer: Its GI50 is 0.692 µM (active).

Question: What about the GI50 (SK-OV-3) of the same molecule?
Answer: Its GI50 is 10.8 µM (inactive).

Question: What about the GI50 (TK-10) of the same molecule?
Answer: Its GI50 is 2.19 µM (inactive).

Question: And the GI50 (PC-3)?
Answer: The GI50 was 3.1 µM (inactive).

Question: What about the GI50 (M14) of the same molecule?
Answer: Its GI50 is 2.11 µM (inactive).

Question: What about the GI50 (SF-268) of the same molecule?
Answer: Its GI50 is 2.95 µM (inactive).

Question: What about the GI50 (SK-MEL-28) of the same molecule?
Answer: Its GI50 is 2.12 µM (inactive).

Question: And the GI50 (SK-MEL-5)?
Answer: The GI50 was 3.19 µM (inactive).

Question: And the GI50 (HCT-15)?
Answer: Its GI50 is 2.58 µM.
